Assay [1] has as its target Serine/threonine-protein kinase PAK 1 (Homo sapiens) (UniProt Q13153). The experiment in a line: Selectivity interaction (Kinase panel (Z-LYTE Assay)) EUB0001632a PAK1. The following applies: at 10 µM.
Assay [2] has as its target BDNF/NT-3 growth factors receptor (Homo sapiens) (UniProt Q16620). The assay is described as follows: Selectivity interaction (Ambit KINOMEscan and KiNATiv profiling in Jurkat cells) EUB0000090b NTRK2. It counts as cell-based. The following applies: at 1 µM.
Assay [3] addresses Casein kinase I isoform gamma-2 (Homo sapiens) (UniProt P78368). The experiment in a line: Selectivity interaction (SelectScreen profiling (Invitrogen)) EUB0000607a CSNK1G2. The settings on record: at 2 µM.
Assay [4] has as its target T1, Mitogen-activated protein kinase kinase kinase 15 (Homo sapiens) (UniProt Q6ZN16).
T1 sequence (whole entry): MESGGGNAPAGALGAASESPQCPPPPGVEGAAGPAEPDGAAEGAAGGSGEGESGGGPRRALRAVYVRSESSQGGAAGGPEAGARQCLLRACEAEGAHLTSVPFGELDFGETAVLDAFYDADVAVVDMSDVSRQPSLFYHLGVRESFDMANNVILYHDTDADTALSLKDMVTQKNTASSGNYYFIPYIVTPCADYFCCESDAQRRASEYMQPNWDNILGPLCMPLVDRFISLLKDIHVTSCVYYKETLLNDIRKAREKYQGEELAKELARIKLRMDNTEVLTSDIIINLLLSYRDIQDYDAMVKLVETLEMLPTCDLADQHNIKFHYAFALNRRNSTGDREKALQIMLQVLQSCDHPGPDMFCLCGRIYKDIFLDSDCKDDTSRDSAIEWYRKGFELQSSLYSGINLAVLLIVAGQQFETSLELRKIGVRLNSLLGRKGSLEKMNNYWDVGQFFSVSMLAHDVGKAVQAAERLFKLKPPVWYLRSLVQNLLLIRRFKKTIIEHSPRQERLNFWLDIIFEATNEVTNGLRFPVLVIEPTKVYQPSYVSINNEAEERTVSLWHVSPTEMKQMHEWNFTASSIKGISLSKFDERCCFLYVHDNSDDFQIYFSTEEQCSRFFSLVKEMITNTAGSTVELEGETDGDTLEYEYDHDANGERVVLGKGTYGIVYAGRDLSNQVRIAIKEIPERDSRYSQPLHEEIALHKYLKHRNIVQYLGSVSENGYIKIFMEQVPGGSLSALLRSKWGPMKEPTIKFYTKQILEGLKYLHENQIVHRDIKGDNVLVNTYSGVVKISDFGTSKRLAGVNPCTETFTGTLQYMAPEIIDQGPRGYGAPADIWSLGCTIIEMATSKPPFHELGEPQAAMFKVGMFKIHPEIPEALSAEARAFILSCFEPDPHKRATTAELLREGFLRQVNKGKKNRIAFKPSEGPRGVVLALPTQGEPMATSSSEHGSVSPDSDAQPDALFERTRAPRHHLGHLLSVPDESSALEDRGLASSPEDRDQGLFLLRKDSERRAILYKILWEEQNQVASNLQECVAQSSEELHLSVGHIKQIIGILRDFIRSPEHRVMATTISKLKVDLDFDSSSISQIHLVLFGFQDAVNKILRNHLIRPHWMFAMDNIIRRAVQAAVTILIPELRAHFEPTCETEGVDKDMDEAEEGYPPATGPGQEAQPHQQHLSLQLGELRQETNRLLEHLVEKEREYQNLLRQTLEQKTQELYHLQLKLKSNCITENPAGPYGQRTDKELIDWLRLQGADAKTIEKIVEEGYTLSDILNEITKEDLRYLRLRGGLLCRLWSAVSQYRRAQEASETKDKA
The following applies: at 10 µM.

The target in assay [5] is T2, cGMP-dependent protein kinase 2 (Homo sapiens) (UniProt Q13237).
T2 sequence (whole entry): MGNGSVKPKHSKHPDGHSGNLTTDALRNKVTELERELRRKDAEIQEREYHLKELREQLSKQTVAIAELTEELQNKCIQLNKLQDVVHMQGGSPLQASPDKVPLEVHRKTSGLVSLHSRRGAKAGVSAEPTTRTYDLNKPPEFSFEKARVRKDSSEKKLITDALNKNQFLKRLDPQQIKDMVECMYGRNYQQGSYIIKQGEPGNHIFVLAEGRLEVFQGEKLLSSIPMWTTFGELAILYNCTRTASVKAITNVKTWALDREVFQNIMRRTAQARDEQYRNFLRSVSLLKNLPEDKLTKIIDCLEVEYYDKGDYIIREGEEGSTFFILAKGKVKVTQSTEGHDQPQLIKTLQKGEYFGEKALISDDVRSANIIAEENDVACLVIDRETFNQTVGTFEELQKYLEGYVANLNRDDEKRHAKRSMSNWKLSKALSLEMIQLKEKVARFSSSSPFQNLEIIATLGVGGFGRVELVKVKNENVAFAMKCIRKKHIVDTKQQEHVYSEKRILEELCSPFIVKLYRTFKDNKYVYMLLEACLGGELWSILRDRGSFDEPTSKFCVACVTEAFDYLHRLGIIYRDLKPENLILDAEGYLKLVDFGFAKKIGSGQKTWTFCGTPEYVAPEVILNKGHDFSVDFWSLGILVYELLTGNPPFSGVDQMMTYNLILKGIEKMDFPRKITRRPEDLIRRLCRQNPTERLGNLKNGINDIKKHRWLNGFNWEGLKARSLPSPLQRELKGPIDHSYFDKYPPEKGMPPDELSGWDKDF
The following applies: at 10 µM.

Assay [6] concerns the target T3, Tyrosine-protein kinase TXK (Homo sapiens) (UniProt P42681).
T3 sequence (whole entry): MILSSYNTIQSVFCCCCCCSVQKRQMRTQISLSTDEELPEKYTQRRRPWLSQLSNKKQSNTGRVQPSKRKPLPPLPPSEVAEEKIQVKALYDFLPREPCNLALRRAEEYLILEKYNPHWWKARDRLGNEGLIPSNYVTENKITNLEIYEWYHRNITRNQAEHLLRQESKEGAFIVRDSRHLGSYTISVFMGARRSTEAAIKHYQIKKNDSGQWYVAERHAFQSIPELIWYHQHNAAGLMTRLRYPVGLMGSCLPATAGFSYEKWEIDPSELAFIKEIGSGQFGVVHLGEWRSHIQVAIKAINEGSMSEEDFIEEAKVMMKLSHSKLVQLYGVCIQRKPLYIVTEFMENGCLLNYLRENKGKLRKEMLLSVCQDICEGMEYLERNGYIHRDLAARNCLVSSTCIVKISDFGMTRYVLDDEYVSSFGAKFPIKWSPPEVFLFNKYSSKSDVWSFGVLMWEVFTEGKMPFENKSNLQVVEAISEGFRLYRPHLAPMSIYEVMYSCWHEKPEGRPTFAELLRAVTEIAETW
The assay is described as follows: Selectivity interaction (KinomeScan (DiscoverX)) EUB0000695a TXK. The settings on record: at 100 nM.

In assay [7] the target is Serine/threonine-protein kinase MRCK alpha (Homo sapiens) (UniProt Q5VT25). The assay is described as follows: Selectivity interaction (Kinase panel (DSF assay)) EUB0001559a CDC42BPA.
Sequence of Serine/threonine-protein kinase MRCK alpha (Homo sapiens) (Q5VT25 whole entry): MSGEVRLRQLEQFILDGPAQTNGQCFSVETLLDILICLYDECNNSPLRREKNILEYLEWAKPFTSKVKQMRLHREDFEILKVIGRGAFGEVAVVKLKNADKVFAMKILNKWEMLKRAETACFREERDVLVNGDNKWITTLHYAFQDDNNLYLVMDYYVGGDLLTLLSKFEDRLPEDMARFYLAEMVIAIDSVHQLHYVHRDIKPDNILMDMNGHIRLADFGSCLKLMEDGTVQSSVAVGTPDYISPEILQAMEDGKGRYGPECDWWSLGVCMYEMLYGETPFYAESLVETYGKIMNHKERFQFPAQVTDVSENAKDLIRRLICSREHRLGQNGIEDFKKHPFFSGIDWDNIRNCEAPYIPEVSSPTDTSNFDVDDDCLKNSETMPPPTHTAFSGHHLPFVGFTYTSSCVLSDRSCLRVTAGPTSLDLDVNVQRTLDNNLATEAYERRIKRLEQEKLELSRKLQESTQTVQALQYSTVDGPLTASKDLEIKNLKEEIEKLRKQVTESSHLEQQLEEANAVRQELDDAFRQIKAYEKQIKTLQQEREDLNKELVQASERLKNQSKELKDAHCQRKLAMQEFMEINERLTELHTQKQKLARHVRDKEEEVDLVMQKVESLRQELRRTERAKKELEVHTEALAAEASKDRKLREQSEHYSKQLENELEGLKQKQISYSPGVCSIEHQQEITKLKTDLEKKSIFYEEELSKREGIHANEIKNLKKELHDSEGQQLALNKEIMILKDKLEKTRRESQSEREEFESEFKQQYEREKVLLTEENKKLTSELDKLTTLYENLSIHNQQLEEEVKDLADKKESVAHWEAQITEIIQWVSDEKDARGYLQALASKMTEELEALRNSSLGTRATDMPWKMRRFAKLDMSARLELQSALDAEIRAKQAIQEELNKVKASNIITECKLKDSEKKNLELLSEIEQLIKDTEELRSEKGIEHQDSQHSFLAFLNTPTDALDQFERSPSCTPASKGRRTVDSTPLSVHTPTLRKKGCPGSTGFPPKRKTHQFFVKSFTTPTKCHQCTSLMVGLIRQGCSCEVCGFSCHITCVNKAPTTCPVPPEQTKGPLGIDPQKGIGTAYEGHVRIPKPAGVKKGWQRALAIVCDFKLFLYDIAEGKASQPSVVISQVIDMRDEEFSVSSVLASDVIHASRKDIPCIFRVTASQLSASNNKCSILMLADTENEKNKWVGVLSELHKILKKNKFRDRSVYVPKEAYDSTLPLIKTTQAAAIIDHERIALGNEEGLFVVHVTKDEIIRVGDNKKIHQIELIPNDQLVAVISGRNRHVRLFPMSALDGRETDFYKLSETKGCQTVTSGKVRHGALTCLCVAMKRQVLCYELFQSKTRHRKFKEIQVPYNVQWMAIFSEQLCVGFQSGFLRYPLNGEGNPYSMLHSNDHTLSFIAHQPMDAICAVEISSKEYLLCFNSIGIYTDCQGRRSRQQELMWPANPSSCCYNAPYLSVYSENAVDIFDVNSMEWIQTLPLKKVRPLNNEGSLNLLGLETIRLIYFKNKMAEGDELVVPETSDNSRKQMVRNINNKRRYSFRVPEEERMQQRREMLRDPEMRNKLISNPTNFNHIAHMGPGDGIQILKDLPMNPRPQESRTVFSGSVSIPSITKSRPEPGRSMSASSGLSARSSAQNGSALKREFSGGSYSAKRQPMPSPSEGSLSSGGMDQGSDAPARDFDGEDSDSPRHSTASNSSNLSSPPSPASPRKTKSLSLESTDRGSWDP

Sequence of Casein kinase I isoform gamma-2 (Homo sapiens) (P78368 whole entry, looked up, canonical isoform): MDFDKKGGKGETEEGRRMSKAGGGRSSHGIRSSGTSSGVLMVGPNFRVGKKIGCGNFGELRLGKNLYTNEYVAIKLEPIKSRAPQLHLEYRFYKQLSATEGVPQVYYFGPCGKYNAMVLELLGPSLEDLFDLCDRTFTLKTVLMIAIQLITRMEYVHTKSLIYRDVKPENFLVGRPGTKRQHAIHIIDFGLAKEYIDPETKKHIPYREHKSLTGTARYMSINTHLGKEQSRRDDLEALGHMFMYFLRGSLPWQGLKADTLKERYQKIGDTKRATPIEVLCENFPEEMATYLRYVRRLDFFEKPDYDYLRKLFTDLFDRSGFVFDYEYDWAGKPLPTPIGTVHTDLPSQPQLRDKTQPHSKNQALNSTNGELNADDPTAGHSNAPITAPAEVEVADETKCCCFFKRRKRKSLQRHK
Sequence of BDNF/NT-3 growth factors receptor (Homo sapiens) (Q16620 32-822 limits assumed): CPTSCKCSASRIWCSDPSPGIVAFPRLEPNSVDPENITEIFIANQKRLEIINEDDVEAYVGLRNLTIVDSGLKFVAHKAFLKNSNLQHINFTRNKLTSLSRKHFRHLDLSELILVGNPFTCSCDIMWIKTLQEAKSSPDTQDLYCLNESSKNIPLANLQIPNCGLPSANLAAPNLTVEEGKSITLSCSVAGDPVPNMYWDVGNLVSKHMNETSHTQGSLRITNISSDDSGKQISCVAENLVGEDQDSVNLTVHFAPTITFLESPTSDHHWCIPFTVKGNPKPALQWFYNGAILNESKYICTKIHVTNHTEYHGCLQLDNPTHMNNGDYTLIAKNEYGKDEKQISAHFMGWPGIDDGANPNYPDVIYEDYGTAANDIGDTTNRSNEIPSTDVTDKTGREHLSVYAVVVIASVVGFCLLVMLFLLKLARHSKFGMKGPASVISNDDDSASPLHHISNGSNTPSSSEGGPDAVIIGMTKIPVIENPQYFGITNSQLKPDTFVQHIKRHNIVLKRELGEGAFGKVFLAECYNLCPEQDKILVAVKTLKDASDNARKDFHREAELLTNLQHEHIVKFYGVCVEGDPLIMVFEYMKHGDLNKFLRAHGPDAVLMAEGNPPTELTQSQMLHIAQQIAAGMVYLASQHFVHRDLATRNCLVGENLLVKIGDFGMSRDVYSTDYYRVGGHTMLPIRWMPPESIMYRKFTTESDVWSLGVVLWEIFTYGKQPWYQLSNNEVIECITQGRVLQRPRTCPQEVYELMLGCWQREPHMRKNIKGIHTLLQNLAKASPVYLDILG
Sequence of Serine/threonine-protein kinase PAK 1 (Homo sapiens) (Q13153 whole entry): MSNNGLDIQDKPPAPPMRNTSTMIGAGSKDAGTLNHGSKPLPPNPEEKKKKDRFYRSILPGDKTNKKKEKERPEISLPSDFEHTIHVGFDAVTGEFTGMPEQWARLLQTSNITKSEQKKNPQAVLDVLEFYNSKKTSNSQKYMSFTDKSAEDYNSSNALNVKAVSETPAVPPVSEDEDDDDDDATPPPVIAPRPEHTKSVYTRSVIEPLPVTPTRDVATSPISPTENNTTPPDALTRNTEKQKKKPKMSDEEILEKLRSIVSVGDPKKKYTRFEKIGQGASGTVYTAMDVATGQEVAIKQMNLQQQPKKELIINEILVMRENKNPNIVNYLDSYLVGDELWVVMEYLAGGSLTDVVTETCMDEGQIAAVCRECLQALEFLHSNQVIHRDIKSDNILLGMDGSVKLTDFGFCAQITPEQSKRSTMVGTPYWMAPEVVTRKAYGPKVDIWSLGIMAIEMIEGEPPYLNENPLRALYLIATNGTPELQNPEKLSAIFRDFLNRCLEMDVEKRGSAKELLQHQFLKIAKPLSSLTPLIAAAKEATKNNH

Take `Cn1cc(-n2cnc3c(NCc4nc5cc(Cl)c(Cl)cc5[nH]4)nc(N4CCOCC4)nc32)cn1`: the % of control in assay [1] is -0.498%.
Consider `CN(C)C/C=C/C(=O)Nc1ccc(C(=O)N2CCCC(Nc3ncc(Cl)c(-c4c[nH]c5ccccc45)n3)C2)cc1` (configuration not stated), for which the % of control in assay [2] came out at 76%.
With `CNC(=O)Nc1ccc(-c2nc(N3CC4CCC(C3)O4)c3cnn(C4CCC5(CC4)OCCO5)c3n2)cc1`, the % of inhibition in assay [3] is -6%.
With `Cc1cc([C@@H](C)Nc2ccccc2C(=O)O)c2nc(N3CCOCC3)cc(=O)n2c1` [AZD-6482], the % of control in assay [4] turned out to be 87%; in assay [5] it was 98%.
For `Cc1cc(F)c(C(=O)Nc2cccc(-c3nncn3C(C)C)n2)cc1-n1cnc(C2CC2)c1`, the % of control in assay [6] is 98%.
On to `CN(C(=O)c1cnn2cccnc12)c1cc2c(cc1N1CCOCC1)C(=O)N(C[C@@H](F)C(C)(C)O)C2`, for which, in assay [7], the dTM is 0 K.

(Values after ChEMBL document CHEMBL5465560, “Selectivity Literature for EUbOPEN Chemogenomic Library” (2024).)
